ChEMBL document CHEMBL1201862, “PubChem BioAssay data set” (2004)
Activity calls are given as the source filed them.

Tests used:
[1] = A375 melanoma cell cytotoxicity, dose response, counter-screen for MITF inhibitor project, CellTiter-Glo luminescence, dry powder, set 2 (AID 624489); format: functional, cell-based; details: A-375;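 further: actives are compounds lowering A375 viability meaning general cytotoxicity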
[2] = A375 melanoma cell viability loss, dose response, counter-screen for MITF inhibitor project, CellTiter-Glo luminescence, dry powder, set 4 (AID 624364); format: functional, cell-based; details: A-375;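 further: A375 melanoma cells are MITF independent so this is a counter screen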
INS1 = assay: beta cell apoptosis inhibitors, cytokine rescue, dose response, luminescence, retest (AID 449756); format: functional, cell-based; details: Rattus norvegicus;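 further: cell death triggered by IL-1 beta plus TNF-alpha plus IFN-gamma mixture; protective hits raise ATP signal compared with cytokine alone wells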
[3] = target: Matrix metalloproteinase-14 (Homo sapiens, UniProt P50281); assay: Dose Response confirmation of uHTS hits for a small molecule inhibitors of MT1-MMP activation in a fluorescence assay set 2.; format: functional
[4] = target: T1, Rac GTPase-activating protein 1 (Homo sapiens, UniProt Q9H0H5); assay: MgcRacGAP GTPase-activating activity inhibitors, confirmation, biochemical, ADP Hunter fluorescence, primary and confirmatory (AID 624330); format: functional
T1 sequence (Q9H0H5 whole entry): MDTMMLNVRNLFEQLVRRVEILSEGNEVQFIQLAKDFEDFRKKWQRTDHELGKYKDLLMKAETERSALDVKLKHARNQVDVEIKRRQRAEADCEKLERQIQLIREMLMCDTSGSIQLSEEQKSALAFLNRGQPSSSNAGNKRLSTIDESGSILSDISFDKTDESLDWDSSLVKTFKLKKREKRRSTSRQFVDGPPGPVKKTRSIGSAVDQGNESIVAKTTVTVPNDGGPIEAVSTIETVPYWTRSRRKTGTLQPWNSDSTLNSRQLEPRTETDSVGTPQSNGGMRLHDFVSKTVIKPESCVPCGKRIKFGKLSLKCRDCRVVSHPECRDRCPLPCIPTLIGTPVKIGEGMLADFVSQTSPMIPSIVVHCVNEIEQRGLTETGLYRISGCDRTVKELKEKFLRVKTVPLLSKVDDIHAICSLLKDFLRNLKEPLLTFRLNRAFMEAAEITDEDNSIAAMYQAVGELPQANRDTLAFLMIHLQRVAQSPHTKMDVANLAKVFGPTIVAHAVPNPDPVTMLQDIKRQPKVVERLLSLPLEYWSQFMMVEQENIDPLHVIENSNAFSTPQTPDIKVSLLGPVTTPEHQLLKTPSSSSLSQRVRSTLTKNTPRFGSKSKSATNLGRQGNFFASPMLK

[5] = HeLa cell cytotoxicity, dose response, cytotoxicity control for MgcRacGAP inhibitor project (AID 624300); format: functional
Protein Wnt-3a = Protein Wnt-3a (Mus musculus, UniProt P27467); assay: Wnt3a-driven reporter signaling inhibition, dose response, selectivity assay for Gli-SUFU antagonist project, Wnt-LIGHT cells, luminescence (AID 651570); format: functional; details: read-out: IC50_Mean;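 further: Wnt-LIGHT reporter cells stimulated with conditioned medium from Wnt3a-producing cells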
Large T antigen = Large T antigen (Simian virus 40, UniProt P03070); format: functional, Betapolyomavirus macacae;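 further: Confirmatory-stage PubChem screen for compounds that inhibit SV40 T antigen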
HEK293 = assay: HEK293T cell cytotoxicity, dose response, cytotoxicity control, ATP luminescence, cherry-pick samples (AID 687005); format: functional, cell-based; details: Homo sapiens;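 further: cells exposed to compound for 48 hours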
[6] = HEK293 Cytotoxicity Assay Measured in Cell-Based System Using Plate Reader - 7071-01_Inhibitor_Dose_CherryPick_Activity_Set2.; format: functional
Vero = assay: cells; format: functional; details: Chlorocebus sabaeus
[7] = Counterscreen for inhibitors of Trypanosoma brucei methionyl tRNA synthetase (MetRS): Luminescence-based cell-based high throughput dose response assay to identify compounds that are cytotoxic to Jurkat human T lymphocyte cells.; format: functional
[8] = target: T2, Methionyl-tRNA synthetase, putative (Trypanosoma brucei brucei, UniProt Q38C91); format: functional, Trypanosoma brucei brucei strain 927/4 GUTat10.1
[9] = Late stage counterscreen for inhibitors of Trypanosoma brucei methionyl tRNA synthetase (MetRS): Luminescence-based cell-based high throughput dose response assay to identify compounds that are cytotoxic to Jurkat human T lymphocyte cells.; format: functional
[10] = target: T2, Methionyl-tRNA synthetase, putative; format: functional, Trypanosoma brucei brucei strain 927/4 GUTat10.1; remark: listed apart in the source
[11] = YAP1 pathway inhibition via CTGF transcript levels, dose response, cell-based, DLD1 colon cancer, RT-qPCR, cherry-pick (AID 1053122); format: functional; details: Cancer cell lines
cells [12] = details: A549
Bcl-2-like protein 10 = target: T3, Bcl-2-like protein 10 (Homo sapiens, UniProt Q9HD36); assay: displacers of TR3 peptide from Bcl-B, primary screen, selectivity assay for Bfl-1 inhibitor project, biochemical, fluorescence polarization, FITC-TR3 peptide (AID 748);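 further: fluorescence polarization from a fluorescein-labelled TR3 peptide binding purified Bcl-B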
T3 sequence (Q9HD36 whole entry): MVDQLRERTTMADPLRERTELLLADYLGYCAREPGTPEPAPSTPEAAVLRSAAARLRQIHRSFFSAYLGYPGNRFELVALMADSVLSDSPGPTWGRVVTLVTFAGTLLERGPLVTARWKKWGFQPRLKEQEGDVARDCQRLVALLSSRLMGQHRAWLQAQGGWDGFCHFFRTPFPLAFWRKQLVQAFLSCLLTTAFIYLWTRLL

cells [13] = assay: cells
Paired box protein Pax-8 = Paired box protein Pax-8 (Homo sapiens, UniProt Q06710); assay: inhibitors of PAX8-driven TPO luciferase reporter, dose response, RMG-I cells, cherry-pick (AID 687027); format: functional, cell-based;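 further: luciferase reporter driven by Pax8 target thyroperoxidase promoter measured by SteadyGlo luminescence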
[14] = A2780 ovarian cancer cell cytotoxicity, dose response, cytotoxicity control, plate reader, dry powder samples (AID 743046); format: functional, cell-based
[15] = non-specific cell cytotoxicity, dose response, cytotoxicity control for PAX8 inhibitor project, plate reader, dry powder samples (AID 743021); format: functional, cell-based
[16] = A Cell-Based Confirmatory Screen for Compounds that Inhibit VEEV, TC-83 (5).; format: functional

T2 sequence (Q38C91 whole entry): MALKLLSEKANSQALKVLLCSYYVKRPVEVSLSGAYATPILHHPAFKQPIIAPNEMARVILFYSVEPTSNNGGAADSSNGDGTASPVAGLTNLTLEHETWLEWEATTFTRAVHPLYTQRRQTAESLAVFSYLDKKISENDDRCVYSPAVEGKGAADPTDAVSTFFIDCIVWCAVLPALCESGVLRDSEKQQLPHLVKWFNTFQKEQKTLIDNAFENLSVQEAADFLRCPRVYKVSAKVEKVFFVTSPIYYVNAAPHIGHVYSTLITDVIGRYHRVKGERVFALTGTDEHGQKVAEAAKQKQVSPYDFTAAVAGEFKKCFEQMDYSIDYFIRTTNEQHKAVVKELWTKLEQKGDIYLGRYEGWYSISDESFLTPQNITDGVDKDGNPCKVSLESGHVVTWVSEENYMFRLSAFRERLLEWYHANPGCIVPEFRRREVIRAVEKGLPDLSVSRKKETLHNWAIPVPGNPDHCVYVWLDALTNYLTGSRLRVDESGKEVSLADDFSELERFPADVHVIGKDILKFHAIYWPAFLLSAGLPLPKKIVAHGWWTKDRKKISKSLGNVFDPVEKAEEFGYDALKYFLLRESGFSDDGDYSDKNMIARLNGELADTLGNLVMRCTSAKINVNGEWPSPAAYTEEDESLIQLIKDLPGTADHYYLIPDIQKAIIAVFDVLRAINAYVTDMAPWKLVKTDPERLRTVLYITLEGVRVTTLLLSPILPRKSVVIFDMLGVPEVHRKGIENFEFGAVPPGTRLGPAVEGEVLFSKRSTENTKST
Paired box protein Pax-8, sequence (Q06710 whole entry): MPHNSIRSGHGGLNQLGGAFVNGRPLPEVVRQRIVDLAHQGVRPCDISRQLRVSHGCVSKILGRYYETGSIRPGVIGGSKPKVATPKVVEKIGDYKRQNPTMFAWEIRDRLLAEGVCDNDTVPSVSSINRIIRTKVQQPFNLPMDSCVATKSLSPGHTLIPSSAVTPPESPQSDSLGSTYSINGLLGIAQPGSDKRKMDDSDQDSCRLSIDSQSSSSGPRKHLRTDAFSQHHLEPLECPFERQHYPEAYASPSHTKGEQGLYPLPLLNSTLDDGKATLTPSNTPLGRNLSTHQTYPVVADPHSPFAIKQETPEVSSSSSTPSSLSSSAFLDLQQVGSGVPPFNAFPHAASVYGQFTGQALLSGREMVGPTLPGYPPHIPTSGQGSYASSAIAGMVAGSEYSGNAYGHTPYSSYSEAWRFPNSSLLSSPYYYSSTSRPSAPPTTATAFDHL
Protein Wnt-3a, sequence (P27467 whole entry): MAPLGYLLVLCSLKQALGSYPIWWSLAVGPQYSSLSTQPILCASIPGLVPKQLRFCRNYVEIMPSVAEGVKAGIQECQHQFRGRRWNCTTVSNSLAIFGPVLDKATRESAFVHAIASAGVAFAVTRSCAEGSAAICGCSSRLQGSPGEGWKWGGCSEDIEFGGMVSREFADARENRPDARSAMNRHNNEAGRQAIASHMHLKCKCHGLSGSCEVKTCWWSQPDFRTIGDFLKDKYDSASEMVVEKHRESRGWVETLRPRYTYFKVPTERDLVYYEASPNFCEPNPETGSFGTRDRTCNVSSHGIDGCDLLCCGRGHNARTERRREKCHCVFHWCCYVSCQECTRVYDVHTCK
Large T antigen, sequence (P03070 whole entry): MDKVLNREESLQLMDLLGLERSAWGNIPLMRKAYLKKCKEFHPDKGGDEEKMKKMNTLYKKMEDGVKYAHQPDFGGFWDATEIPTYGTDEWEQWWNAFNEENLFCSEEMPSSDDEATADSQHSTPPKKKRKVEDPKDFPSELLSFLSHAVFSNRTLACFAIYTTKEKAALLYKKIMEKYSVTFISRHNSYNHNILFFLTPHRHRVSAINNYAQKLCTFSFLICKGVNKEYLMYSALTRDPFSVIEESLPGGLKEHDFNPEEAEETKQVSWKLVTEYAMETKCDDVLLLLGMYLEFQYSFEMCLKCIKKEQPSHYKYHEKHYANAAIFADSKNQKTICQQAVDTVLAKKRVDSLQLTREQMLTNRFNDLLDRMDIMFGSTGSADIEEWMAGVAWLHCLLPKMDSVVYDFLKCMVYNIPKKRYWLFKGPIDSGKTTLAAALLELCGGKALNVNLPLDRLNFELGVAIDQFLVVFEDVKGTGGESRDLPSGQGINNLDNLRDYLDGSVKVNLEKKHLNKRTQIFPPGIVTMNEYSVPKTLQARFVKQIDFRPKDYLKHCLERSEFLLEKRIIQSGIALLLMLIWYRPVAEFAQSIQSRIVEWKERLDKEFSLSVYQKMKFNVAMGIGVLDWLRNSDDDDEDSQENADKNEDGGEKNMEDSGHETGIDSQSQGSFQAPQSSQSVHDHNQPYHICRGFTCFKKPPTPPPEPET

CC(=O)NC1=C(c2ccc3c(c2)oc2ccccc23)C(=O)c2ccccc2C1=O
AC50 [1]: 14.9 µM (active)
AC50 [2]: 26.9 µM (active)

CN1/C(=C\C=N\NC(=O)c2ccc(O)cc2)C(C)(C)c2ccccc21
AC50 (INS1): 5.43 µM (active)
IC50 [3]: 31.1 µM (inactive)
IC50 [4]: 60.3 µM (active)
CC50 [5]: 100 µM (active)
IC50 (Protein Wnt-3a): 15.4 µM (active)
IC50 (Large T antigen): 20.5 µM (active)

Cc1cccc(C)c1NC(=O)CNC(=O)C(C)N1CCCCC1 (centres undefined)
AC50 (HEK293): > 52 µM (inactive)
AC50 [6]: > 52 µM (inactive)

O=C(C[C@H]1C(=O)N(Cc2ccccc2)C[C@@H]1c1ccc(Br)cc1)Nc1ccc(Br)cc1
CC50 (Vero): > 25 µM (active)
IC50 [7]: 83.3 µM (inactive)
IC50 [8]: 3.46 µM (active)
IC50 [9]: 66.5 µM (inactive)
IC50 [10]: 1.78 µM (active)

C[C@H]1CN([C@@H](C)CO)C(=O)c2cccc(NC(=O)c3nc4ccccc4s3)c2O[C@@H]1CN(C)C(=O)Nc1ccc2c(c1)OCO2
AC50 [11]: 1.82 µM (active)

Cn1c(=N)c(S(=O)(=O)c2ccccc2)cc2c(=O)n3ccccc3nc21
AC50 (cells [12]): > 52 µM (inactive)
IC50 (Bcl-2-like protein 10): > 12.5 µM (inactive)
AC50 (cells [13]): 1.26 µM (active)

C[C@@H]1CCCCO[C@@H](CN(C)Cc2ccc(Cl)c(Cl)c2)[C@H](C)CN([C@@H](C)CO)C(=O)c2cc(NC(=O)Nc3ccccc3)ccc2O1
AC50 (Paired box protein Pax-8): 11.6 µM (active)
AC50 [14]: 3.09 µM (active)

CC(C)(C)OC(=O)NCCCC[C@H](NC(=O)c1[nH]cnc1C(=O)Nc1ccc(CNC(=O)OC(C)(C)C)cc1)C(=O)OC(C)(C)C
AC50 (Paired box protein Pax-8): 4.41 µM (active)
AC50 [15]: 7.72 µM (active)

O=c1c2cc([N+](=O)[O-])ccc2nc(CN2CCCCC2)n1-c1ccccc1F
IC50 [16]: 4.7 µM (active)
